This is an account of results in patent US8816085B2 (Takeda GmbH, priority 2009, dated 2014).

The structures appear in SMILES notation. Bounds are passed on as bounds.

In the assay the target is T1, PDE5A1 (human PDE5 from platelets) (Homo sapiens, UniProt O76074).
T1 construct: from tissue; host or cells: platelets from fresh blood of human donors (10,000 g supernatant of sonified platelets)
The experiment in a line: Inhibition of type 5 phosphodiesterase (PDE5) activity, modified SPA test. The settings on record: PDE5-containing human platelet lysate, 0.5 μM cGMP, value classes, read-out: PDE5A1 inhibitory values [measured as −logIC50 (mol/l)] (converted). It counts as biochemical. The procedure, abridged:
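Enzyme source: human platelet lysate (10,000 g supernatant), with 1 μM motapizone and 10 nM PDE2 inhibitor present. SPA format in 20 mM Tris pH 7.4, 5 mM Mg2+, 0.5 μM cGMP with [3H]cGMP tracer; 5 min preincubation at 37 °C, 15 min reaction, stopped with IBMX-containing beads. IC50 by non-linear regression.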
Regarding `COc1ccc(OCC2CC2)c(-c2ccnc3c(C(=O)N[C@H]4CC[C@H](NC(=O)CO)CC4)c(C)[nH]c23)c1` [Example F28, 7-[2-(Cyclopropylmethoxy)-5-methoxyphenyl]-N-{trans-4-[(hydroxyacetyl)amino]cyclohexyl}-2-methyl-1H-pyrrolo[3,2-b]pyridine-3-carboxamide], the IC50 is under 1 nM.

With `COc1ccc(OCC2CC2)c(-c2ccnc3c(C(=O)N[C@H]4CC[C@H](NC(=O)[C@H](C)O)CC4)c(C)[nH]c23)c1` [Example F29, 7-[2-(Cyclopropylmethoxy)-5-methoxyphenyl]-N-(trans-4-{[abs.(2S)-2-hydroxypropanoyl]amino}cyclohexyl)-2-methyl-1H-pyrrolo[3,2-b]pyridine-3-carboxamide], the IC50 was under 1 nM.

As for `COc1ccc(OCC2CC2)c(-c2ccnc3c(C(=O)N[C@H]4CC[C@@H](NC(=O)CO)CC4)c(C)[nH]c23)c1` [Example F30, 7-[2-(Cyclopropylmethoxy)-5-methoxyphenyl]-N-{cis-4-[(hydroxyacetyl)amino]cyclohexyl}-2-methyl-1H-pyrrolo[3,2-b]pyridine-3-carboxamide], the IC50 is under 1 nM.

In the case of `COc1ccc(OCC2CC2)c(-c2ccnc3c(C(=O)N[C@H]4CC[C@@H](NC(=O)[C@H](C)O)CC4)c(C)[nH]c23)c1` [Example F31, 7-[2-(Cyclopropylmethoxy)-5-methoxyphenyl]-N-(cis-4-{[(2S)-2-hydroxypropanoyl]amino}cyclohexyl)-2-methyl-1H-pyrrolo[3,2-b]pyridine-3-carboxamide], the IC50 was under 1 nM.

As for `Cc1ccc(OCC2CC2)c(-c2ccnc3c(C(=O)NC4CCN(C(=O)CO)CC4)c(C)[nH]c23)c1` [Example F34, 7-[2-(Cyclopropylmethoxy)-5-methylphenyl]-N-[1-(hydroxyacetyl)piperidin-4-yl]-2-methyl-1H-pyrrolo[3,2-b]pyridine-3-carboxamide], the IC50 was 1 to 10 nM.

As for `Cc1ccc(OCC2CC2)c(-c2ccnc3c(C(=O)NC4CCN(C(=O)[C@H](C)O)CC4)c(C)[nH]c23)c1` [Example F35, 7-[2-(cyclopropylmethoxy)-5-methylphenyl]-N-{1-[abs.(2S)-2-hydroxypropanoyl]piperidin-4-yl}-2-methyl-1H-pyrrolo[3,2-b]pyridine-3-carboxamide], the IC50 is 1 to 10 nM.

As for `Cc1ccc(OCC2CC2)c(-c2ccnc3c(C(=O)N[C@H]4CC[C@H](NC(=O)CO)CC4)c(C)[nH]c23)c1` [Example F36, 7-[2-(Cyclopropylmethoxy)-5-methylphenyl]-N-{trans-4-[(hydroxyacetyl)amino]cyclohexyl}-2-methyl-1H-pyrrolo[3,2-b]pyridine-3-carboxamide], the IC50 was 1 to 10 nM.

As for `Cc1ccc(OCC2CC2)c(-c2ccnc3c(C(=O)N[C@H]4CC[C@H](NC(=O)[C@H](C)O)CC4)c(C)[nH]c23)c1` [Example F37, 7-[2-(Cyclopropylmethoxy)-5-methylphenyl]-N-(trans-4-{[(2S)-2-hydroxypropanoyl]amino}cyclohexyl)-2-methyl-1H-pyrrolo[3,2-b]pyridine-3-carboxamide], the IC50 is 1 to 10 nM.

For `Cc1ccc(OCC2CC2)c(-c2ccnc3c(C(=O)N[C@H]4CC[C@@H](NC(=O)CO)CC4)c(C)[nH]c23)c1` [Example F38, 7-[2-(Cyclopropylmethoxy)-5-methylphenyl]-N-{cis-4-[(hydroxyacetyl)amino]cyclohexyl}-2-methyl-1H-pyrrolo[3,2-b]pyridine-3-carboxamide], the IC50 is 1 to 10 nM.

For `Cc1ccc(OCC2CC2)c(-c2ccnc3c(C(=O)N[C@H]4CC[C@@H](NC(=O)[C@H](C)O)CC4)c(C)[nH]c23)c1` [Example F39, 7-[2-(Cyclopropylmethoxy)-5-methylphenyl]-N-(cis-4-{[(2S)-2-hydroxypropanoyl]amino}cyclohexyl)-2-methyl-1H-pyrrolo[3,2-b]pyridine-3-carboxamide], the IC50 was 1 to 10 nM.

In the case of `COc1cc(-c2ccnc3c(C(=O)NC4CCN(C(=O)CO)CC4)c(C)[nH]c23)c(OCC2CC2)cc1F` [Example F40, 7-[2-(Cyclopropylmethoxy)-4-fluoro-5-methoxyphenyl]-N-[1-(hydroxyacetyl)piperidin-4-yl]-2-methyl-1H-pyrrolo[3,2-b]pyridine-3-carboxamide], the IC50 was under 1 nM.

As to `COc1cc(-c2ccnc3c(C(=O)NC4CCN(C(=O)[C@H](C)O)CC4)c(C)[nH]c23)c(OCC2CC2)cc1F` [Example F41, 7-[2-(Cyclopropylmethoxy)-4-fluoro-5-methoxyphenyl]-N-{1-[(2S)-2-hydroxypropanoyl]piperidin-4-yl}-2-methyl-1H-pyrrolo[3,2-b]pyridine-3-carboxamide], the IC50 is under 1 nM.

Regarding `COc1cc(-c2ccnc3c(C(=O)N[C@H]4CC[C@H](NC(=O)CO)CC4)c(C)[nH]c23)c(OCC2CC2)cc1F` [Example F42, 7-[2-(Cyclopropylmethoxy)-4-fluoro-5-methoxyphenyl]-N-{trans-4-[(hydroxyacetyl)amino]cyclohexyl}-2-methyl-1H-pyrrolo[3,2-b]pyridine-3-carboxamide], the IC50 was under 1 nM.

For the compound `COc1cc(-c2ccnc3c(C(=O)N[C@H]4CC[C@H](NC(=O)[C@H](C)O)CC4)c(C)[nH]c23)c(OCC2CC2)cc1F` [Example F43, 7-[2-(Cyclopropylmethoxy)-4-fluoro-5-methoxyphenyl]-N-(trans-4-{[(2S)-2-hydroxypropanoyl]amino}cyclohexyl)-2-methyl-1H-pyrrolo[3,2-b]pyridine-3-carboxamide], the IC50 is under 1 nM.

As to `COc1cc(-c2ccnc3c(C(=O)N[C@H]4CC[C@@H](NC(=O)CO)CC4)c(C)[nH]c23)c(OCC2CC2)cc1F` [Example F44, 7-[2-(Cyclopropylmethoxy)-4-fluoro-5-methoxyphenyl]-N-{cis-4-[(hydroxyacetyl)amino]cyclohexyl}-2-methyl-1H-pyrrolo[3,2-b]pyridine-3-carboxamide], the IC50 is under 1 nM.

With `COc1cc(-c2ccnc3c(C(=O)N[C@H]4CC[C@@H](NC(=O)[C@H](C)O)CC4)c(C)[nH]c23)c(OCC2CC2)cc1F` [Example F45, 7-[2-(Cyclopropylmethoxy)-4-fluoro-5-methoxyphenyl]-N-(cis-4-{[abs.(2S)-2-hydroxypropanoyl]amino}cyclohexyl)-2-methyl-1H-pyrrolo[3,2-b]pyridine-3-carboxamide], the IC50 is under 1 nM.

As to `COc1cc(OCC2CC2)c(-c2ccnc3c(C(=O)NC4CCN(C(=O)CO)CC4)c(C)[nH]c23)cc1F` [Example F50, 7-[2-(Cyclopropylmethoxy)-5-fluoro-4-methoxyphenyl]-N-(1-glycoloylpiperidin-4-yl)-2-methyl-1H-pyrrolo[3,2-b]pyridine-3-carboxamide], the IC50 was under 1 nM.

Regarding `COc1cc(OCC2CC2)c(-c2ccnc3c(C(=O)NC4CCN(C(=O)[C@H](C)O)CC4)c(C)[nH]c23)cc1F` [Example F51, 7-[2-(Cyclopropylmethoxy)-5-fluoro-4-methoxyphenyl]-N-{1-[(2S)-2-hydroxypropanoyl]piperidin-4-yl}-2-methyl-1H-pyrrolo[3,2-b]pyridine-3-carboxamide], the IC50 is under 1 nM.

For the compound `COc1cc(OCC2CC2)c(-c2ccnc3c(C(=O)N[C@H]4CC[C@H](NC(=O)CO)CC4)c(C)[nH]c23)cc1F` [Example F52, 7-[2-(Cyclopropylmethoxy)-5-fluoro-4-methoxyphenyl]-N-[trans-4-(glycoloylamino)cyclohexyl]-2-methyl-1H-pyrrolo[3,2-b]pyridine-3-carboxamide], the IC50 was under 1 nM.

For the compound `COc1cc(OCC2CC2)c(-c2ccnc3c(C(=O)N[C@H]4CC[C@H](NC(=O)[C@H](C)O)CC4)c(C)[nH]c23)cc1F` [Example F53, 7-[2-(Cyclopropylmethoxy)-5-fluoro-4-methoxyphenyl]-N-(trans-4-{[(2S)-2-hydroxypropanoyl]amino}cyclohexyl)-2-methyl-1H-pyrrolo[3,2-b]pyridine-3-carboxamide], the IC50 is under 1 nM.

Regarding `COc1cc(OCC2CC2)c(-c2ccnc3c(C(=O)N[C@H]4CC[C@@H](NC(=O)CO)CC4)c(C)[nH]c23)cc1F` [Example F54, 7-[2-(Cyclopropylmethoxy)-5-fluoro-4-methoxyphenyl]-N-[cis-4-(glycoloylamino)cyclohexyl]-2-methyl-1H-pyrrolo[3,2-b]pyridine-3-carboxamide], the IC50 was under 1 nM.
